From US4057530A, “2-Phenyl-indole derivatives and process for preparing the same” (priority 1974, dated 1977)
Like-named read-outs stand apart in the source and are kept apart here.

Key:
mice = type: in vivo
Procedure: The study of the acute toxicity of the stabilizers listed below was carried out by determining the dose of substance which provoked the death of 50% of the treated animals (LD50). A gummy suspension of the substance under study was administered by oral route to groups of at least ten mice and the following results were observed: […]

[1] = Static thermostability of stabilized resin, simplified method (GARDNER sub-scale), Compound A; details: 210° C
Procedure: The stabilizing power of the substances of the invention was studied from two points of view:
These studies were performed with six different formulae of vinyl resins (hereinafter referred to as Compounds).
The different compounds were mixed and calendered in a mixer of which the cylinders were heated to 160° C. The rigid sheets so obtained were then heated in an oven to a temperature between 180° C and 215° C, until incipient carbonization.
A stove with rotating drums, ventilated and equipped with a thermostat was used for this operation. In the trials described hereunder, the behaviour of a sheet containing the stabilizer to be tested was compared to that of a sheet of the same formula but containing 2-phenyl-indole as stabilizer.
2. It is also possible to use a simplified method which is more rapid and with which valid results are also obtained: a reference scale is drawn up with sheets of thermally treated polyvinyl chloride, of which the colourations have been definitely determined in GARDNER degrees as above. A GARDNER sub-scale is thus obtained in polyvinyl chloride sheets which can be directly compared to the sheets to be tested without using the comparator.
Finally, trials were carried out with Stabilizers 15, 16 and 17 and with 2-phenyl-indole. Compound A was used and the temperature was 210° C.

[2] = Extractibility of the stabilizer from Compound A containing Stabilizer 16
Procedure: This study was carried out in accordance with the requirements of the Food and Drug Administration (U.S.A.).
The extractions were performed in semi-rigid bottles, prepared with Compounds Nos. 609 and 675, and with the following solvents: water, an aqueous solution of acetic acid (3%), ethanol-water 50/50, heptane.
The ratio of the volume of solvent to the surface of plastic material exposed to extraction was about 1 cm^2 to […] of solvent, taking into account the geometric characteristics of the bottles.
The quantity of stabilizer extracted was determined by colorimetric assay using p-dimethylaminobenzaldehyde, in accordance with the method described in Analytical Chemistry 36, 425-26 (1964).
The amounts of stabilizer assayed are expressed in μg per liter of extraction solvent or, which is the same, per 1000 cm^2 of surface submitted to extraction.
The same trials were carried out with Compound A containing 2-(4'-dodecylthio-phenyl)-indole (Stabilizer 16) as stabilizer and the following results were obtained: […]

Row | SMILES | LDO (maximal dose which does not provoke any death) (mice; mouse, in vivo, po) | Toxic symptoms (mice; oral, mice, LDO study) | Static thermostability compared with 2-phenyl-indole [1] | Colouration of sheet (GARDNER sub-scale) ([1]; 0 min) | Colouration of sheet (GARDNER sub-scale) ([1]; 3 min) | Colouration of sheet (GARDNER sub-scale) ([1]; 6 min) | Colouration of sheet (GARDNER sub-scale) ([1]; 9 min) | Colouration of sheet (GARDNER sub-scale) ([1]; 12 min) | Colouration of sheet (GARDNER sub-scale) ([1]; 15 min) | Colouration of sheet (GARDNER sub-scale) ([1]; 18 min) | Amount of stabilizer extracted ([2]; 3% aqueous acetic acid, 20 days) | Amount of stabilizer extracted ([2]; aqueous ethanol 50/50, 9 days) | Amount of stabilizer extracted ([2]; heptane, 48 hours) | Amount of stabilizer extracted ([2]; water, 10 days) | Toxic symptoms (mice; mouse, in vivo, po)
1 | CCCCSc1ccc(-c2cc3ccccc3[nH]2)cc1 [Stabilizer 15, 2-(4'-butylthio-phenyl)-indole] | > 3000 mg/kg | none | very rapidly found to be superior to 2-phenyl-indole | 1 GARDNER degrees | 1 GARDNER degrees | 2 GARDNER degrees | 5 GARDNER degrees | 10 GARDNER degrees | 13 GARDNER degrees | burnt |  |  |  |  | 
2 | CCCCCCCCCCCCSc1ccc(-c2cc3ccccc3[nH]2)cc1 [Stabilizer 16, 2-(4'-n-dodecylthio-phenyl)-indole] | > 3000 mg/kg |  | very rapidly found to be superior to 2-phenyl-indole | 1 GARDNER degrees | 1 GARDNER degrees | 2 GARDNER degrees | 5 GARDNER degrees | 10 GARDNER degrees | 13 GARDNER degrees | burnt | < 3 μg per liter | < 10 μg per liter | 175 μg per liter | < 3 μg per liter | none
